Values after ≈ are worked out from the molar mass of the structure shown. “Also recorded” adds a separate entry of the source.

This is an account of results in publication PMC6920806, “Synthesis of β-D-galactopyranoside-Presenting Glycoclusters, Investigation of Their Interactions with Pseudomonas aeruginosa Lectin A (PA-IL) and Evaluation of Their Anti-Adhesion Potential” (Biomolecules, 2019).

In assay [1] the target is T1, lectin PA-IL (Pseudomonas aeruginosa, UniProt Q05097).
T1 construct: made in house; host or cells: Escherichia coli BL21(DE3)
T1 sequence (Q05097 2-122): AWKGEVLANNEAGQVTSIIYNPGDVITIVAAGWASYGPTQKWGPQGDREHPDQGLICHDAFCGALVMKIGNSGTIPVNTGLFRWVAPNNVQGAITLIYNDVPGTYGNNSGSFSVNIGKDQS
The assay is described as follows: Analytical ultracentrifugation (sedimentation velocity), cross-linking of lectin. To be noted: for cross-linking of PA-IL (formation of the 6.4 S particle): protein:ligand ratios 1:0.1, 1:1, 1:10; for level of cross-linking (6.4 S octameric species): 1:0.1 protein to ligand ratio, 22 µM PA-IL. The method, then: Analytical ultracentrifugation experiments were performed using ProteomeLab XL-I analytical ultracentrifuge (Beckman Coulter, Indianapolis, IN, USA) equipped with an An-60 Ti rotor. Sedimentation velocity experiments were conducted in titanium double-sector centerpiece cells (Nanolytics Instruments, Potsdam, Germany) loaded with 390 µL of both protein sample and reference solution (PBS buffer, pH = 7.5). PA-IL without the added ligand and PA-IL samples pre-incubated with different concentrations of galactosylated dendrimers 4, 7, 10 and 13 and D-galactose (protein:ligand ratios of 1:0.1, 1:1 and 1:10) were analyzed by the sedimentation velocity experiment. All the measurements were performed in PBS buffer with 22 µM PA-IL. Data were collected using absorbance optics at 25 °C at a rotor speed of 48,000 rpm. Scans were collected at 280 nm (or alternatively at 294 nm to decrease the absorbance signal of the samples containing excess of the UV-absorbing ligands 4 and 10) at 5-min intervals and 0.003 cm spatial resolution in continuous scan mode. The partial specific volume of the protein and the solvent density and viscosity were calculated from the amino acid sequence and buffer composition, respectively, using the software Sednterp (http://bitcwiki.sr.unh.edu). The data were analyzed with the continuous c(s) distribution model implemented in the program Sedfit 15.01b. For the regularization procedure, a confidence level of 0.95 was used. The plots of c(s) distributions were created in GUSSI 1.3.1 [28].

Assay [2] has as its target T1, lectin PA-IL. As to the kind of experiment: Hemagglutination inhibition assay (HIA) with microscope detection. Format: biochemical. To be noted: for Potency (MIC of standard/MIC of inhibitor) / β (Potency/Valency): HIA, standard D-galactose; for MIC (minimal inhibitory concentration): inhibition of hemagglutination caused by PA-IL (0.125 mg mL−1), papain-treated red blood cells B+. The method, then:
PA-IL was dissolved in the buffer with calcium ions suitable for the activity of the lectin (20 mM Tris/HCl, 150 mM NaCl, 5 mM CaCl2, pH = 7.5) to the concentration 0.25 mg mL^−1. Lectin was mixed with carbohydrate inhibitors serially diluted in the buffer in a 5 µL:5 µL ratio. Therefore, the final (working) concentration of the lectin was 0.125 mg mL^−1. A total of 10 µL of 20% papain-treated, azid-stabilized red blood cells B^+ in the buffer was then added, and the mixture was thoroughly mixed and incubated for 5 min at room temperature. After incubation, the mixture was again mixed, transferred to a microscope slide, and examined. The examination was conducted using the Levenhuk D2L NG Digital Microscope (Levenhuk, Tampa, FL, USA). Images were obtained with a Levenhuk D2L digital camera (Levenhuk, Tampa, FL, USA) using the software ToupView for Windows (Version 3.7, Levenhuk, Tampa, FL, USA). The positive (experiment without inhibitor) and negative control (experiment without lectin) were prepared and processed in the same way using the appropriate volume of dissolving buffer instead of the omitted components. The minimal inhibitory concentration (MIC) of the inhibitor able to inhibit hemagglutination was determined and compared with the standard (D-galactose) and the potency of the inhibitor was calculated (MIC of the standard/MIC of the inhibitor).

Assay [3] concerns adhesion of P. aeruginosa (ST 1763) to epithelial bronchial cells (CuFi-1). As to the kind of experiment: Ex vivo bacterial adherence assay: inhibition of P. aeruginosa adhesion to epithelial cells. Format: cell-based, Pseudomonas aeruginosa. To be noted: for inhibitory effect on bacterial adhesion compared to the control / bacterial adhesion compared to the untreated control: 2 h incubation; for bacterial adhesion compared to the untreated control: highest concentration (2 mM); for concentrations with significant protecting (anti-adhesion) effect: p < 0.05, Dunnett test. The method, then: Epithelial CuFi-1 cells (an immortalized epithelial cell line derived from cystic fibrosis human lungs, ATCC, Kielpin, Poland) were labelled with PKH67 (Fluorescent Cell Linker Kit, Sigma-Aldrich, St. Louis, MO, USA), a green fluorescent membrane marker, as follows. An aliquot of cell suspension containing 7 × 10^6 cells was washed with PBS buffer and centrifuged (100× g for 5 min). The cell pellet was resuspended in 250 µL of Diluent C (Fluorescent Cell Linker Kit, Sigma-Aldrich, St. Louis, MO, USA). Immediately, an equal volume of 8 µM PKH67 in Diluent C (2 µL of PKH67 in 248 µL of Diluent C) was added to the cell suspension. After 5 min incubation at room temperature with periodic mixing, the staining reaction was stopped by adding an equal volume of 1% Fetal Bovine Serum (FBS, Gibco^TM Invitrogen, Paisley, UK) in PBS. After 1 min incubation with FBS, the suspension was centrifuged (100× g for 10 min). Finally, the cells were washed three times with Bronchial Epithelial Cell Growth Basal Medium (Lonza, Basel, Switzerland), followed by centrifugation (100× g for 5 min).
Pseudomonas aeruginosa strain 1763 (University Hospital Motol, Prague, Czech Republic) was stained with PKH26 (Fluorescent Cell Linker Kit, Sigma-Aldrich, St. Louis, MO, USA), a red fluorescent membrane marker. Bacteria were grown in a suspension culture in PS medium (peptone/casein digest) in an Erlenmeyer flask for 14 h. The culture was washed with PBS buffer and centrifuged (13,400× g for 5 min). The pellet containing 1.5 × 10^9 bacteria was resuspended in 125 µL of Diluent C (Fluorescent Cell Linker Kit, Sigma-Aldrich, St. Louis, MO, USA) and an equal volume of 16 µM PKH26 in Diluent C (2 µL of PKH26 in 123 µL of Diluent C) was added to the bacterial suspension. The bacteria/dye suspension was incubated for 30 min at room temperature with periodic mixing. The staining was quenched by adding an equal volume of 1% BSA (Bovine Serum Albumin, Merck, Kenilworth, NJ, USA) in PBS. The suspension was incubated with BSA for 1 min to allow the binding of excess dye and then centrifuged (15,700× g for 10 min). Bacteria were washed two times with PBS, followed by centrifugation (13,400× g for 7.5 and 5 min).
Epithelial cells CuFi-1 stained with PKH67 were seeded at 8.4 × 10^4 cells/well onto 96-well plates (CellBIND® 96-well Flat Clear Bottom Black Polystyrene Microplates, Corning Incorporated, Corning, NY, USA) and incubated for 42–45 h at 37 °C, 5% CO2 to form a confluent monolayer and regenerate. Prior to the assay, wells were washed with PBS. Compounds 4, 7, 10 and 13 were serially diluted with PBS to the desired concentrations. PKH26-stained bacteria P. aeruginosa were added to the diluted inhibitor solutions. Bacterial suspensions were immediately added to the wells (50 µL/well). The input ratio was about 100 bacteria per epithelial cell (8.4 × 10^6 bacteria/well). A suspension without any inhibitor was used as a control. After 2 h incubation at room temperature, the wells were extensively washed three times with PBS to remove non-adhered bacteria. The fluorescence of adhered P. aeruginosa cells (Ex 522 nm, Em 569 nm for PKH26) on epithelial cells (Ex 470 nm, Em 505 for PKH67) was quantified using the spectrofluorometer Tecan Infinite M200 Pro (Tecan Group Ltd., Männedorf, Switzerland). Results were expressed as a relative fluorescence ratio of P. aeruginosa/CuFi-1. Three independent incubations were performed.

For the molecule `COC(=O)c1cc(OCc2cn(CCOCCOCCOCCn3cc(CO[C@@H]4O[C@H](CO)[C@H](O)[C@H](O)[C@H]4O)nn3)nn2)c(OCc2cn(CCOCCOCCOCCn3cc(CO[C@@H]4O[C@H](CO)[C@H](O)[C@H](O)[C@H]4O)nn3)nn2)c(OCc2cn(CCOCCOCCOCCn3cc(CO[C@@H]4O[C@H](CO)[C@H](O)[C@H](O)[C@H]4O)nn3)nn2)c1` [Compound 4], the “cross-linking of PA-IL (formation of the 6.4 S particle)” value (from here on “cross-linking of PA-IL”) in assay [1] was “did not form intermolecular cross-links”. Besides, in assay [2], the “Potency (MIC of standard/MIC of inhibitor)” value is given as 128, the “β (Potency/Valency)” value is 42.7 and the “MIC (minimal inhibitory concentration)” value amounted to 48.83 µM (≈ 82.3 µg/mL). For the same molecule, the “inhibitory effect on bacterial adhesion compared to the control” value in assay [3] is recorded as “no inhibitory effect; also recorded: no visible protective effect”.
With `OC[C@H]1O[C@@H](OCc2cn(CCOCCOCCOCCn3cc(COCC(COCc4cn(CCOCCOCCOCCn5cc(CO[C@@H]6O[C@H](CO)[C@H](O)[C@H](O)[C@H]6O)nn5)nn4)(COCc4cn(CCOCCOCCOCCn5cc(CO[C@@H]6O[C@H](CO)[C@H](O)[C@H](O)[C@H]6O)nn5)nn4)COCc4cn(CCOCCOCCOCCn5cc(CO[C@@H]6O[C@H](CO)[C@H](O)[C@H](O)[C@H]6O)nn5)nn4)nn3)nn2)[C@H](O)[C@@H](O)[C@H]1O` [Compound 7], in assay [1], the “level of cross-linking (6.4 S octameric species)” value (“level of cross-linking” below) is ~ 30% and the “cross-linking of PA-IL” value was “induced the formation of the 6.4 S particle”. For the same molecule, in assay [2], the “Potency (MIC of standard/MIC of inhibitor)” value came out at 256, the “β (Potency/Valency)” value is 64 and the “MIC (minimal inhibitory concentration)” value is listed as 24.41 µM (≈ 52.2 µg/mL). Also, the “inhibitory effect on bacterial adhesion compared to the control” value in assay [3] is given as “no inhibitory effect; also recorded: no visible protective effect”.
Take `COC(=O)c1cc(OCc2cn(CCn3cc(CO[C@@H]4O[C@H](CO)[C@H](O)[C@H](O)[C@H]4O)nn3)nn2)c(OCc2cn(CCn3cc(CO[C@@H]4O[C@H](CO)[C@H](O)[C@H](O)[C@H]4O)nn3)nn2)c(OCc2cn(CCn3cc(CO[C@@H]4O[C@H](CO)[C@H](O)[C@H](O)[C@H]4O)nn3)nn2)c1` [Compound 10]: in assay [1], the “level of cross-linking” value was ~ 15% and the “cross-linking of PA-IL” value is given as “induced the formation of the 6.4 S particle”. Besides, in assay [2], the “Potency (MIC of standard/MIC of inhibitor)” value stood at 64, the “β (Potency/Valency)” value is recorded as 21.3 and the “MIC (minimal inhibitory concentration)” value amounted to 97.66 µM (≈ 126 µg/mL). In addition, in assay [3], the “lower concentrations resulting in statistically significantly increased fluorescent signal (adhered bacteria)” value was at most 125 µM, the “bacterial adhesion compared to the untreated control” value was “approximately 32%” and the “concentrations with significant protecting (anti-adhesion) effect” value is recorded as at least 1 mM.
For `OC[C@H]1O[C@@H](OCc2cn(CCn3cc(COCC(COCc4cn(CCn5cc(CO[C@@H]6O[C@H](CO)[C@H](O)[C@H](O)[C@H]6O)nn5)nn4)(COCc4cn(CCn5cc(CO[C@@H]6O[C@H](CO)[C@H](O)[C@H](O)[C@H]6O)nn5)nn4)COCc4cn(CCn5cc(CO[C@@H]6O[C@H](CO)[C@H](O)[C@H](O)[C@H]6O)nn5)nn4)nn3)nn2)[C@H](O)[C@@H](O)[C@H]1O` [Compound 13], in assay [1], the “level of cross-linking” value was ~ 15% and the “cross-linking of PA-IL” value is “induced the formation of the 6.4 S particle”. For the same molecule, in assay [2], the “Potency (MIC of standard/MIC of inhibitor)” value turned out to be 128, the “β (Potency/Valency)” value was found to be 32 and the “MIC (minimal inhibitory concentration)” value turned out to be 48.83 µM (≈ 78.6 µg/mL). In addition, in assay [3], the “lower concentrations resulting in statistically significantly increased fluorescent signal (adhered bacteria)” value is at most 125 µM, the “bacterial adhesion compared to the untreated control” value is reported as about 42% and the “concentrations with significant protecting (anti-adhesion) effect” value is at least 1 mM.
